Data on 30 compounds can be found in patent publication US8815857B2 (Boehringer Ingelheim International GmbH, priority 2011, dated 2014).

As a reminder, the EC50 is the concentration needed to bring the measured effect to its halfway point. What is called solubility is how much of the substance goes into solution per volume. A low value points to little dissolved substance.

Data set [1] has as its target T1, Recombinant human soluble guanylate cyclase (sGC), alpha 1 / beta 1 subunits, heme-free (Homo sapiens, UniProt Q02108+Q02153).
T1 construct: histidine tag (C); made in house; host or cells: Sf9 insect cells (baculovirus coinfection)
T1 sequence (Q02108 1-690 partner): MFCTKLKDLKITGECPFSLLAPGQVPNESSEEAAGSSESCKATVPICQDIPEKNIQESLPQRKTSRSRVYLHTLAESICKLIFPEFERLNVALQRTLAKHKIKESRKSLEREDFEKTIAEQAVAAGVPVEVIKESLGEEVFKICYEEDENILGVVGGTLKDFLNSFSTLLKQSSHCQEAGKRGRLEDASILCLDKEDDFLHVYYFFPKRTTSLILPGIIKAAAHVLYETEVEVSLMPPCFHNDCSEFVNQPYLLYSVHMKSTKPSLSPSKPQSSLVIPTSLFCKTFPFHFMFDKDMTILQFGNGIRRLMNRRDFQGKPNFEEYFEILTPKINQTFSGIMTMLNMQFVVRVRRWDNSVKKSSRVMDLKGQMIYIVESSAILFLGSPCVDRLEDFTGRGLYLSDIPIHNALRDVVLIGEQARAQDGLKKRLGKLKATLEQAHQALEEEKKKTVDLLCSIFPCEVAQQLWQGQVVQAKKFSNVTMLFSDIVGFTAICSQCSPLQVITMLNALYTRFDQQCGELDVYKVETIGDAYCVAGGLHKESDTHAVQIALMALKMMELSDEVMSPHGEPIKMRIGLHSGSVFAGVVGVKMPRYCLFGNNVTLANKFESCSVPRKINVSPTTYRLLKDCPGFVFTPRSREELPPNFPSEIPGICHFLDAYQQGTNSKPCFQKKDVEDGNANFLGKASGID
T1 sequence (Q02153 1-619): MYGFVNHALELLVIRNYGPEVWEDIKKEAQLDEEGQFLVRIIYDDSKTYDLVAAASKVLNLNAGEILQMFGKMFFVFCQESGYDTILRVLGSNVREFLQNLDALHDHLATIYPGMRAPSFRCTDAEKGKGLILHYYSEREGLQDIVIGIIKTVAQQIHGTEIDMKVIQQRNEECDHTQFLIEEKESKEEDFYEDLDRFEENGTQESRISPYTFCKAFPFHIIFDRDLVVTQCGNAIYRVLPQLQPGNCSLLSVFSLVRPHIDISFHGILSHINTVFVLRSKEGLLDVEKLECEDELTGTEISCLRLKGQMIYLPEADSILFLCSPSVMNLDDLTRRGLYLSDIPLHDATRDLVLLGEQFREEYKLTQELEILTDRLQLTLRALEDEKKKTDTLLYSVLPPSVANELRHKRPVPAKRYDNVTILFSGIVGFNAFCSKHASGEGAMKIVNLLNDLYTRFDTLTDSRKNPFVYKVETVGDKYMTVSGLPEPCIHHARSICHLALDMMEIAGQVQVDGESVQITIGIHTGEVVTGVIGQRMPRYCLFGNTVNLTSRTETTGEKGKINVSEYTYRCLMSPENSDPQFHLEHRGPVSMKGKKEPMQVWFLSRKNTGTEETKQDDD
The experiment in a line: Molecular assay: cGMP formation by heme-free recombinant sGC (CisBio cGMP detection kit). Type of data set: biochemical. The settings on record: 300 pM heme-free sGC, 37° C., 60 min, cGMP readout; read-out: EC50 nM, Activity of Compounds in Molecular Assay. The method in brief:
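Heme-free His-tagged sGC (Sf9-expressed, Tween 20-treated lysate) at 300 pM incubated with compounds (1% DMSO) for 60 min at 37° C in MOPS pH 6.8 with 50 nM GTP, IBMX, TCEP. cGMP quantified by HTRF against calibration curve; EC50 from combined undiluted/diluted values.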

The nature of data set [2]: Assessment of solubility: HT solubility in pION buffer, UV spectrophotometry. The settings on record: 16-19 h incubation, 1.0% DMSO; for solubility: pION system solution buffer, kinetic from dmso stock.
Setting [3] is: pH 4.5, pH 4.5, aqueous buffer, Solubility (pH 4.5), pH 4.5 buffer.
The mark [4] stands for this setting: pH 7.4, pH 7.4, aqueous buffer, Solubility (pH 7.4), pH 7.4 buffer.

Values after ≈ are worked out from the molar mass of the structure shown. Some results are limits rather than exact numbers.

`Cc1cc(C(=O)N2CCCCC2)ccc1COc1ccc(F)cc1-c1csc(N2CCC(C(=O)O)C(C)C2)n1` (stereo not drawn) [Compound 1]: the EC50 in data set [1] stood at 60 nM. The solubility in data set [2] (setting [3]) is 0.85 µg/mL (≈ 1.54 µM); in data set [2] (setting [4]) it was over 100 µg/mL.
The like results for `Cc1ccc(OCc2ccc(C(=O)N3CCCCC3)cc2C)c(-c2csc(N3CCC(C(=O)O)C(C(F)(F)F)C3)n2)c1` (stereo not drawn) [Compound 142] were, in that order, 160 nM, 2 µg/mL (≈ 3.32 µM) and over 60 µg/mL.
On the same counts, the results for `Cc1cc(CN2CCS(=O)(=O)CC2)ccc1COc1ccc(Cl)cc1-c1csc(N2CCC(C(=O)O)CC2)n1` [Compound 133] are 45 nM, 0.2 µg/mL (≈ 0.339 µM) and over 58 µg/mL.
On the same counts, the results for `Cc1cc(CN2CCOCC2)ccc1COc1ccccc1-c1csc(N2CCC(C(=O)O)CC2C(F)(F)F)n1` (stereo not drawn) [Compound 114] are 470 nM, 30 µg/mL (≈ 52.1 µM) and over 57 µg/mL.
`Cc1cc(CN2CCOCC2)ccc1COc1c(C#N)cccc1-c1csc(N2CCC(C(=O)O)CC2)n1` [Compound 35]: in data set [1], the EC50 was 280 nM. The solubility in data set [2] (setting [3]) and in data set [2] (setting [4]) was over 53 µg/mL in each case.
For `Cc1ccc(OCc2ccc(CN3CCOCC3)cc2C)c(-c2csc(N3CCCC(C(=O)O)C3)n2)c1` (stereo not drawn) [Compound 22], the EC50 in data set [1] is 1600 nM. The solubility in data set [2] (setting [3]) and in data set [2] (setting [4]) was over 63 µg/mL in each case.
Consider `Cc1ccc(OCc2ccc(C(=O)N3CCCC3)cc2C)c(-c2csc(N3CCC(C(=O)O)CC3)n2)c1` [Compound 13], for which the EC50 in data set [1] came out at 120 nM. Also, the “Solubility (pH 4.5)” value in data set [2] (pH 4.5 buffer) is 17 μg/mL. In data set [2] (pH 7.4 buffer), the “Solubility (pH 7.4)” value is over 51 μg/mL.
`Cc1cc(CN2CCS(=O)(=O)CC2)ccc1COc1ccc(F)cc1-c1csc(N2CC3C(C2)C3C(=O)O)n1` (stereo not drawn) [Compound 110]: in data set [1], the EC50 was determined as 1200 nM. Besides, the solubility in data set [2] (setting [3]) was 0.35 µg/mL (≈ 0.612 µM); in data set [2] (setting [4]), over 57 µg/mL.
Regarding `Cc1cc(CN(C)C2CCS(=O)(=O)C2)ccc1COc1c(C)cccc1-c1csc(N2CCC(C(=O)O)CC2)n1` (stereo not drawn) [Compound 123], the EC50 in data set [1] worked out at 17 nM. The solubility in data set [2] (setting [3]) is 31 µg/mL (≈ 53.1 µM); in data set [2] (setting [4]), over 58 µg/mL.
The like results for `Cc1ccc(OCc2ccc(CN3CCS(=O)(=O)CC3)cc2C)c(-c2csc(N3C4CCC3CC(C(=O)O)C4)n2)c1` (stereo not drawn) [Compound 137] were, in that order, 64 nM, 0.95 µg/mL (≈ 1.59 µM) and over 59 µg/mL.
As to `Cc1cc(CN2CCOCC2)ccc1COc1ccc(F)cc1-c1csc(N2CCC(C(=O)O)CC2)n1` [Compound 28], the EC50 in data set [1] was determined as 200 nM. Besides, the solubility in data set [2] (setting [3]) and in data set [2] (setting [4]) was over 52 µg/mL throughout.
Turning to `Cc1cc(C(=O)N2CCCCC2)ccc1COc1ccc(Cl)cc1-c1csc(N2CCC(C(=O)O)CC2C)n1` (stereo not drawn) [Compound 102], in data set [1], the EC50 came out at 30 nM. The solubility in data set [2] (setting [3]) is 0.25 µg/mL (≈ 0.44 µM); in data set [2] (setting [4]), 26 µg/mL (≈ 45.8 µM).
On the same counts, the results for `Cc1cc(CN2CCS(=O)(=O)CC2)ccc1COc1ccc(F)cc1-c1csc(N2CCC(C(=O)O)CC2C)n1` (stereo not drawn) [Compound 131] are 88 nM, 0.15 µg/mL (≈ 0.255 µM) and over 58 µg/mL.
`Cc1ccc(OCc2ccc(CN(C)CC3CCOCC3)cc2C#N)c(-c2csc(N3CCC(C(=O)O)CC3)n2)c1` [Compound 112]: in data set [1], the concentration giving a half-maximal response (EC50) was determined as 400 nM. Further, the solubility in data set [2] (setting [3]) and in data set [2] (setting [4]) was over 68 µg/mL in each case.
Consider `Cc1cc(CN2CCOCC2)ccc1COc1ccc(Cl)cc1-c1csc(N2CC3CCC(C2)C3C(=O)O)n1` (stereo not drawn) [Compound 99], for which the EC50 in data set [1] came out at 690 nM. For the same compound, the solubility in data set [2] (setting [3]) turned out to be 4.7 µg/mL (≈ 8.27 µM); in data set [2] (setting [4]), 13 µg/mL (≈ 22.9 µM).
The like results for `Cc1cc(C(=O)N2CCCCC2)ccc1COc1ccc(F)cc1-c1csc(N2CC3C(C2)C3C(=O)O)n1` (stereo not drawn) [Compound 55] were, in that order, 360 nM, 0.3 µg/mL (≈ 0.56 µM) and over 53 µg/mL.
As for `Cc1cc(C(=O)N2CCCCC2)ccc1COc1ccc(F)cc1-c1csc([C@H]2CC[C@H](C(=O)O)CC2)n1` [Compound 57], the EC50 in data set [1] was determined as 1800 nM. The “Solubility (pH 4.5)” value in data set [2] (pH 4.5 buffer) worked out at 0.1 μg/mL. In data set [2] (setting [4]), this compound displayed a solubility of over 53 µg/mL.
In the case of `Cc1ccc(OCc2ccc(CN3CCOCC3)cc2C)c(-c2csc(N(C)CCCC(=O)O)n2)c1` [Compound 179], in data set [1], the EC50 stood at 990 nM. The solubility in data set [2] (setting [3]) and in data set [2] (setting [4]) was over 55 µg/mL each time.
In the case of `Cc1ccc(OCc2ccc(C(=O)N3CCC(F)(F)CC3)cc2C)c(-c2csc(N3CCC(C(=O)O)CC3)n2)c1` [Compound 106], in data set [1], the 50% effective concentration (EC50) was 100 nM. Besides, the solubility in data set [2] (setting [3]) is 0.3 µg/mL (≈ 0.527 µM); in data set [2] (setting [4]), over 56 µg/mL.
On the same counts, the results for `Cc1ccc(OCc2ccc(CNC(C)(C)CO)cc2C)c(-c2csc(N3CCC(C(=O)O)CC3)n2)c1` [Compound 26] are 2000 nM, over 63 µg/mL and over 63 µg/mL.
The like results for `Cc1cc(C(=O)N2CCCCC2)ccc1COc1ccc(Cl)cc1-c1csc(N2CC3CCC(C2)C3C(=O)O)n1` (stereo not drawn) [Compound 118] were, in that order, 85 nM, 0.3 µg/mL (≈ 0.517 µM) and 21 µg/mL (≈ 36.2 µM).
As for `Cc1ccc(OCc2ccc(CN3CCS(=O)(=O)CC3)cc2C)c(-c2csc(N3CC4CCC(C3)C4C(=O)O)n2)c1` (stereo not drawn) [Compound 136], the concentration for a half-maximal effect (EC50) in data set [1] was 6.1 nM. In addition, the solubility in data set [2] (setting [3]) was 0.45 µg/mL (≈ 0.755 µM); in data set [2] (setting [4]) it was over 59 µg/mL.
Regarding `Cc1cc(CN2CCOCC2)ccc1COc1c(C)cccc1-c1csc(N2CCC(C(=O)O)CC2)n1` [Compound 21], in data set [1], the 50% effective concentration (EC50) was 70 nM. Moreover, the solubility in data set [2] (setting [3]) and in data set [2] (setting [4]) was over 52 µg/mL each time.
Consider `Cc1ccc(OCc2ccc(CN3CCOCC3)cc2C)c(-c2csc(NCCC(=O)O)n2)c1` [Compound 3], for which, in data set [1], the EC50 is 1300 nM. The solubility in data set [2] (setting [3]) and in data set [2] (setting [4]) was over 52 µg/mL in each case.
As for `Cc1cc(CN2CCOCC2)ccc1COc1ccccc1-c1csc(N2C3CCC2CC(C(=O)O)C3)n1` (stereo not drawn) [Compound 44], the 50% effective concentration (EC50) in data set [1] was 760 nM. Further, the solubility in data set [2] (setting [3]) and in data set [2] (setting [4]) was over 60 µg/mL throughout.
With `N#Cc1cc(CN2CCOCC2)ccc1COc1c(Cl)cccc1-c1csc(N2CCC(C(=O)O)CC2)n1` [Compound 81], the 50% effective concentration (EC50) in data set [1] worked out at 70 nM. For the same compound, the solubility in data set [2] (setting [3]) stood at 36 µg/mL (≈ 65.1 µM); in data set [2] (setting [4]) it was 38 µg/mL (≈ 68.7 µM).
The like results for `Cc1cc(CN2CCOCC2)ccc1COc1ccc(F)cc1-c1csc(N2CCC(C(=O)O)C(C)C2)n1` (stereo not drawn) [Compound 58] were, in that order, 480 nM, 44 µg/mL (≈ 81.5 µM) and over 61 µg/mL.
The like results for `Cc1ccc(OCc2ccc(CN3CCCCC3)cc2C#N)c(-c2csc(N3CCC(C(=O)O)CC3)n2)c1` [Compound 29] were, in that order, 440 nM, over 64 µg/mL and 5.2 µg/mL (≈ 9.8 µM).
On the same counts, the results for `Cc1cc(CN2CCS(=O)(=O)CC2)ccc1COc1ccc(F)cc1-c1csc(N2C3CCC2CC(C(=O)O)C3)n1` (stereo not drawn) [Compound 139] are 380 nM, 0.6 µg/mL (≈ 1 µM) and over 59 µg/mL.
As to `Cc1cc(C(=O)N2CCCCC2)ccc1COc1ccc(F)cc1-c1csc(N2CCC(C(=O)O)C(C(F)(F)F)C2)n1` (stereo not drawn) [Compound 145], the EC50 in data set [1] is 650 nM. Further, the figures for the solubility in data set [2] (setting [3]) and in data set [2] (setting [4]) were 0.25 µg/mL (≈ 0.413 µM) and over 60 µg/mL, respectively.
